Eleven compounds from patent US8927484B2, “Antiviral compounds” (Gilead Sciences, Inc., priority 2009, dated 2015) can be followed below.

A value given as a limit tells only on which side of the number the result lay.

For the first assay, the system named is Replicon cells harboring H77 (genotype 1a) or Con1 (genotype 1b) HCV RNA and Renilla luciferase reporter. The assay is described as follows: High Throughput Replicon Assay (HTBS). In kind it is cell-based. The following applies: 72 h, read-out: INH @1 μM (Mean). As to the method:
High Throughput Replicon Assay (HTBS)
Replicon cells harboring H77 (genotype 1a) or Con1 (genotype 1b) HCV RNA and Renilla luciferase reporter were seeded in 384-well black plates at a density of 1.6×10^3 cells per well in 90 μl of DMEM culture medium, excluding G-418. Compounds were serially diluted in 100% DMSO and added to cells at a 1:225 dilution, achieving a final concentration of 0.44% DMSO in a total volume of 90 μL with a Biotek uFlow Workstation. Cell plates were incubated at 37° C. with 5% CO2 for 3 days, after which culture media were removed and cells were assayed for luciferase activity as a marker for replication level. Luciferase expression was measured using Dual-Glo luciferase assay reagents (Promega, Madison, Wis.). Briefly, 20 μL of Dual-Glo luciferase buffer was added to lyse the cells for 10 min and subsequently 20 μL of a diluted Dual-Glo Stop & Glo substrate (1:100) was added to each well. Luminescence signal was measured on a Perkin Elmer Envision Plate Reader after incubation for 10 minute. Luciferase levels were converted into percentages relative to the untreated controls (defined as 100%) and data were fit to the logistic dose response equation y=a/(1+(x/b)^c) using XLFit4 software (IDBS, Emeryville, Calif.). EC50 values were calculated from the resulting equations.
For orientation: In antiviral work, replicon cells carry a viral genome segment that copies itself.
On to `C=C[C@@H]1C[C@]1(NC(=O)[C@@H]1C[C@@H](Oc2cc(-c3nc(C(C)C)cs3)nc3c(Cl)c(OCCN4CCOCC4)ccc23)[C@H]2CN(C(=O)OC(C)(C)C)[C@H]([C@H](C)CC)C(=O)N21)C(=O)NS(=O)(=O)C1CC1` [Example 49], for which the inhibition at 1 µM was greater than 95%.
Same read-out and setting: the same measure for `C=C[C@@H]1C[C@]1(NC(=O)[C@@H]1C[C@@H](Oc2cc(-c3nc(C(C)C)cs3)nc3c(Cl)c(OCCN4CCOCC4)ccc23)[C@H]2CN(C(=O)OC(C)(C)C)[C@H]([C@@H](C)OC)C(=O)N21)C(=O)NS(=O)(=O)C1CC1` [Example 54]: greater than 45%; for `C=C[C@@H]1C[C@]1(NC(=O)[C@@H]1C[C@@H](Oc2cc(-c3nc(C(C)C)cs3)nc3c(Cl)c(OCCN4CCOCC4)ccc23)[C@H]2CN(C(=O)OC(C)(C)C)[C@H]([C@H](C)OC)C(=O)N21)C(=O)NS(=O)(=O)C1CC1` [Example 55]: greater than 95%.
Still for that read-out and setting: the same measure for `C=C[C@@H]1C[C@]1(NC(=O)[C@@H]1C[C@@H](Oc2cc(-c3nc(C(C)C)cs3)nc3c(C)c(OC)ccc23)[C@H]2CN(C(=O)OC(C)(C)C)[C@H](C(C)C)C(=O)N21)C(=O)NS(=O)(=O)C1CC1` [Example 58]: greater than 85%.
Same read-out and setting: the same measure for `CC[C@@H]1C[C@]1(NC(=O)[C@@H]1C[C@@H](Oc2cc(-c3nc(C(C)C)cs3)nc3c(C)c(OC)ccc23)[C@H]2CN(C(=O)OC(C)(C)C)[C@H](C(C)C)C(=O)N21)C(=O)NS(=O)(=O)C1CC1` [Example 59]: greater than 45%; for `C=C[C@@H]1C[C@]1(NC(=O)[C@@H]1C[C@@H](Oc2cc(-c3nc(C(C)C)cs3)nc3c(C)c(OC)ccc23)[C@H]2CN(C)[C@H](C(C)C)C(=O)N21)C(=O)NS(=O)(=O)C1CC1` [Example 62]: greater than 99%.
With `CC[C@@H]1C[C@]1(NC(=O)[C@@H]1C[C@@H](Oc2cc(-c3nc(C(C)C)cs3)nc3c(C)c(OC)ccc23)[C@H]2CN(C)[C@H](C(C)C)C(=O)N21)C(=O)NS(=O)(=O)C1CC1` [Example 63], the inhibition at 1 µM is greater than 40%.
The same measure, in the same setting: the same measure for `C=C[C@@H]1C[C@]1(NC(=O)[C@@H]1C[C@@H](Oc2cc(-c3nc(C(C)C)cs3)nc3c(Cl)c(OCCN4CCOCC4)ccc23)[C@H]2CN(C(=O)OC(C)(C)C)[C@H](C3CCOCC3)C(=O)N21)C(=O)NS(=O)(=O)C1CC1` [Example 73]: greater than 90%; for `CC[C@@H]1C[C@]1(NC(=O)[C@@H]1C[C@@H](Oc2cc(-c3nc(C(C)C)cs3)nc3c(Cl)c(OCCN4CCOCC4)ccc23)[C@H]2CN(C(=O)OC(C)(C)C)[C@H](C3CCOCC3)C(=O)N21)C(=O)NS(=O)(=O)C1CC1` [Example 74]: greater than 90%.
On the same count and under the same terms, under `COc1ccc2c(O[C@@H]3C[C@H]4C(=O)N[C@]5(C(=O)NS(=O)(=O)C6CC6)C[C@H]5/C=C\CCCCC[C@@H]5C(=O)N4[C@@H]3CN5C(=O)OC(C)(C)C)cc(-c3cccc(C(C)C)n3)nc2c1Cl` [Example 94] stands greater than 99%.

Staying with this assay, now noted: result in words.
For `CC[C@@H]1C[C@]1(NC(=O)[C@@H]1C[C@@H](OC(=O)N2Cc3cccc(F)c3C2)[C@H]2CCCC(=O)N21)C(=O)NS(=O)(=O)C1CC1` [Example 90], the “activity in the cellular assay” value was “fails to demonstrate optimal activity”.

For another assay, the target named is T1, HCV NS3 protease (Hepatitis C virus genotype 1a, UniProt P27958).
T1 construct: 2-10 nM of purified NS3 protease domains were pre-incubated
T1 sequence (P27958 1027-1208): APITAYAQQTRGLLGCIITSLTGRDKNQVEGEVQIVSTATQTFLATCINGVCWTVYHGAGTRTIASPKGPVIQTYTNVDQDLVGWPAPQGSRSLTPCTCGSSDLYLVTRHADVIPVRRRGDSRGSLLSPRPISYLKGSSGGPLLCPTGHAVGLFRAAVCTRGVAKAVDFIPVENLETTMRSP
The assay is described as follows: HCV NS3 Protease IC50 Determination (FRET). The assay is classed as biochemical. The note with it: result in words.
On to `CC[C@@H]1C[C@]1(NC(=O)[C@@H]1C[C@@H](OC(=O)N2Cc3cccc(F)c3C2)[C@H]2CCCC(=O)N21)C(=O)NS(=O)(=O)C1CC1` [Example 90], for which the “activity in the enzymatic assay” value was “fails to demonstrate optimal activity”.
